In ChEMBL document CHEMBL1134826, “Pyrrolidine inhibitors of human cytosolic phospholipase A2. Part 2: synthesis of potent and crystallized 4-triphenylmethylthio derivative 'pyrrophenone'” (Bioorg Med Chem Lett, 2001):

Experiments:
[1] = species on record: Homo sapiens; assay: Concentration required to inhibit production of PGE-2 from whole blood stimulated with A-23187; format: functional, organism-based
[2] = system: THP-1; assay: Concentration required to inhibit production of arachidonic acid from THP-1 cells stimulated with A-23187; format: functional, cell-based; conditions: Homo sapiens
[3] = species on record: Homo sapiens; assay: Concentration required to inhibit production of arachidonic acid from whole blood stimulated with A-23187; format: functional, organism-based
[4] = species on record: Homo sapiens; assay: Concentration required to inhibit production of LTB4 from whole blood stimulated with A-23187; format: functional, organism-based
[5] = system: THP-1; assay: Concentration required to inhibit production of PGE-2 from THP-1 cells stimulated with A-23187; format: functional, cell-based; conditions: Homo sapiens
[6] = species on record: Homo sapiens; assay: Concentration required to inhibit production of LDH from whole blood stimulated with A-23187; format: functional, organism-based
[7] = system: THP-1; assay: Concentration required to inhibit production of LTC4 from THP-1 cells stimulated with A-23187; format: functional, cell-based; conditions: Homo sapiens
[8] = species on record: Homo sapiens; assay: Concentration required to inhibit production of TXB2 from whole blood stimulated with A-23187; format: functional, organism-based

IC50 [1] [µM]	IC50 [2] [µM]	IC50 [3] [µM]	IC50 [4] [µM]	IC50 [6] [µM]	IC50 [7] [µM]	IC50 [8] [µM]	SMILES	IC50 [5] [µM]
> 10	86	> 10	> 10	> 10	41	> 10	CCCCC/C=C\C/C=C\C/C=C\C/C=C\CCCC(=O)C(F)(F)F [ARACHIDONYL TRIFLUOROMETHYLKETONE]	
0.26	> 10	> 10	> 10	> 10	> 10	0.36	COc1ccc2c(c1)c(CC(=O)O)c(C)n2C(=O)c1ccc(Cl)cc1 [INDOMETHACIN]	

SMILES	IC50 [1] [µM]	IC50 [2] [µM]	IC50 [3] [µM]	IC50 [4] [µM]	IC50 [6] [µM]	IC50 [7] [µM]	IC50 [8] [µM]	IC50 [5] [µM]
CCCCC/C=C\C/C=C\C/C=C\C/C=C\CCCC(=O)O [ARACHIDONIC ACID]	> 10	40	> 10	0.94	> 10	0.0047	> 10	0.18
